Results taken from patent US9908899B2 (BIOMARIN PHARMACEUTICAL INC., priority 2011, dated 2018).
Read-outs that look alike come from different tables or passages of the source.

Tests used:
[1] = tested on: GM 15850(lymphoblastoid cells line) cells; assay: In-cell deacetylase inhibition assay (DAC assay); assay type: cell-based; details: GM 15850 cells, 4 h incubation, read-out: 850 DAC (in-cell deacetylase inhibition IC50)
Experimental: Compound dilutions were made in 100% DMSO followed by parallel dilution in media with 2% DMSO. 10 μl of the compound dilutions were added to the cells to achieve the desired concentrations. The final concentration of DMSO in each well was 0.2%. The cells were incubated for 4 h at 37° C. with 5% CO2. After incubation, the cells were centrifuged down and the supernatant was removed. […] The reaction was stopped after 30 min incubation by addition of 50 μL developer (6 mg/mL trypsin in HDAC assay buffer). The reaction was allowed to develop for 30 min at room temperature and the fluorescence signal was detected using a fluorometer (Spectramax M2, Molecular Devices, Sunnyvale, Calif.) with excitation and emission wavelengths of 360 nm and 470 nm respectively. The data was fitted to a sigmoidal dose response equation with variable slope in GraphPad Prism 5.0 (GraphPad Software, La Jolla, Calif.) to determine IC50. Bottom and top of the curve were fixed to the average fluorescence response of control wells with no cells and cells but no compound respectively.

HDAC3/NcoR2 = HDAC3/NcoR2 (Homo sapiens (Human), UniProt O15379); assay: HDAC activity inhibition assay, HDAC3/NcoR2; assay type: biochemical
Chain of HDAC3/NcoR2 (O15379 whole entry): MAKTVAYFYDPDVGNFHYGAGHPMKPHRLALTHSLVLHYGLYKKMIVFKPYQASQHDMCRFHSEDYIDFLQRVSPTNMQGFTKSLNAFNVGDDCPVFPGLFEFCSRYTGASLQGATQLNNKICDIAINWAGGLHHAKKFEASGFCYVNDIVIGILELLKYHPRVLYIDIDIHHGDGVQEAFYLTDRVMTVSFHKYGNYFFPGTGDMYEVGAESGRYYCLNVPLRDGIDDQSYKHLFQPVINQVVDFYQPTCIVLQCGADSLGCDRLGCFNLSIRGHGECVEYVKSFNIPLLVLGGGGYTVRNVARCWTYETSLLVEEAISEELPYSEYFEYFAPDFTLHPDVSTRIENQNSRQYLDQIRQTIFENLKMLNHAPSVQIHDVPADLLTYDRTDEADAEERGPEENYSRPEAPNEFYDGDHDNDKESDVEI
Chain of HDAC3/NcoR2 (Q9Y618 395-489 partner): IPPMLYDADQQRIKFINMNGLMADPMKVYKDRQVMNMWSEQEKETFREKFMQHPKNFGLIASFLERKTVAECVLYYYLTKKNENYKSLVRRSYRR
Experimental: (§1) The HDAC activity inhibition assay was performed as follows to determine the ability of a test compound to inhibit HDAC enzymatic activity. […] Following pre-incubation, Fluor-de-Lys™ substrate (Enzo Life Sciences, Plymouth Meeting, Pa., BML-KI104-0050) was added to a final concentration of 10 μM and plates were further incubated for 30 minutes at room temperature. […] IC50 values were calculated by using a sigmoidal dose-response (variable slope) equation in GraphPad Prism® 5 for Windows (GraphPad Software, La Jolla, Calif.).

HDAC2 = HDAC2 (Homo sapiens (Human), UniProt Q92769); assay: HDAC activity inhibition assay, HDAC2; assay type: biochemical
Chain of HDAC2 (Q92769 whole entry): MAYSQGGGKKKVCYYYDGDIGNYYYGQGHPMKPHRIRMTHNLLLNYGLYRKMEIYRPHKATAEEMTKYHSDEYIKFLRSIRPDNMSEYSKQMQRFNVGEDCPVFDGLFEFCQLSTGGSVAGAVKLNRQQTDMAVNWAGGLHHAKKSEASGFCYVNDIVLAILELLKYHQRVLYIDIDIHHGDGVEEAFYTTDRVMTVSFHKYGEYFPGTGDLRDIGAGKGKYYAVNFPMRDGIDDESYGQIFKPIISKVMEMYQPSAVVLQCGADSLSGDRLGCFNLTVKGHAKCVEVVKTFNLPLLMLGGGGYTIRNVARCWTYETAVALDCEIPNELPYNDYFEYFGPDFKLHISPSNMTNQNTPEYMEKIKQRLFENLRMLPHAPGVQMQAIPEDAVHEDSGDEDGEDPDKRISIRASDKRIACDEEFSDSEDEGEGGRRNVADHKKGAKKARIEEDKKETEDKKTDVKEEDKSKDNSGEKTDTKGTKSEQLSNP
Experimental: as §1

HDAC1 = HDAC1 (Homo sapiens (Human), UniProt Q13547); assay: HDAC activity inhibition assay, HDAC1; assay type: biochemical
Chain of HDAC1 (Q13547 whole entry): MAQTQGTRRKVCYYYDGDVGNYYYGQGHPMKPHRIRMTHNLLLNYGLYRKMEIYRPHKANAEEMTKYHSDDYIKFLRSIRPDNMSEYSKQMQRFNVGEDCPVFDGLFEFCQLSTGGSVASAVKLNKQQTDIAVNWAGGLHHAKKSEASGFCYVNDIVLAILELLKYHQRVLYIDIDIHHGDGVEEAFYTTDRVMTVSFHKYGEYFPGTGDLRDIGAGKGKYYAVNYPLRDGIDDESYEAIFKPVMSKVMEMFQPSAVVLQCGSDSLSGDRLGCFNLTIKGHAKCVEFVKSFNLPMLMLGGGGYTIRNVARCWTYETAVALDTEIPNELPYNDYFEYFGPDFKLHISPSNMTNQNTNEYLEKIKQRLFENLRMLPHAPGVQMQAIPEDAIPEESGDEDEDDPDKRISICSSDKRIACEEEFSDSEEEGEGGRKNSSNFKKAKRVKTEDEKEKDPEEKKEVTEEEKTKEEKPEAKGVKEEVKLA
Experimental: as §1

C57BL/6J male mice = assay: Long term memory for object recognition (ORM); assay type: in vivo; details: s.c. 3, 10, 30 mg/kg
Experimental: C57BL/6J male mice were handled 1-2 min for 5 days and were habituated to the experimental apparatus 5 min a day for 4 consecutive days in the absence of objects. […] 24-h later mice were tested for memory retention (5 min) using the object recognition memory task (ORM), in which a familiar object was replaced with a novel one. All training and testing trials were videotaped and analyzed by individuals blind to the treatment condition and the genotype of subjects. A mouse was scored as exploring an object when its head was oriented toward the object within a distance of 1 cm or when the nose was touching the object. The relative exploration time was recorded and expressed by a discrimination index [DI=(tnovel−tfamiliar)/(tnovel+tfamiliar)×100].

Frataxin (FXN) mRNA = assay: Effect of HDAC inhibitors on frataxin (FXN) mRNA expression in Friedreich's ataxia patient primary lymphocytes; assay type: cell-based, human; details: Table 4; concentration for 2-fold increase in FXN mRNA
Experimental: Blood is collected from Friedreich's ataxia patient donors into tubes containing the anti-coagulant EDTA. Primary lymphocytes are isolated using Lymphocyte Separation Medium (MP Biomedicals, Solon, Ohio) following the manufacturer's instructions and including a few modifications made by Repligen. After a final wash in Phosphate Buffered Saline (PBS), the cells are distributed into a 6-well cell culture plate in cell growth medium. The test HDAC inhibitor compound is added to cells in a dose escalating manner (usually concentrations range from 1 to 10 μM) and 0.1% DMSO is added to one well of cells as a no treatment control. Cells are incubated for 48 hours at 37° C. in a CO2 incubator; cell counts are taken using a Countess automated cell counter (Invitrogen, Carlsbad, Calif.). Equivalent numbers of cells for all treatment conditions are pelleted by centrifugation and resuspended in cell lysis buffer. Total RNA is isolated from approximately 1×10^6 primary lymphocytes using a RNeasy Mini Kit (Qiagen, Valencia, Calif.), following the manufacturer's instructions and including an optional on-column DNAse digestion step. The isolation is performed either manually or using the QIAcube (Qiagen, Valencia, Calif.), an instrument that automates much of the isolation procedure. The RNA yield and concentration is determined using a Nanodrop spectrophotometer (Thermo Fisher Scientific, Waltham, Mass.) and depending on the RNA concentration, one of two protocols is used to measure frataxin (FXN) transcript levels. For samples containing at least 15 ng/μL RNA a TaqMan® Probe-based (Applied Biosystems, Carlsbad, Calif.) qRT-PCR method is used, while for samples containing less than 15 ng/μL RNA a SYBR Green qRT-PCR method is used. In the TaqMan® Probe-based method specific primer/probe pairs for FXN and GAPDH are multiplexed in each reaction. In the SYBR Green method FXN and GAPDH are amplified in separate reactions. In both methods each RNA sample is analyzed in triplicate (preferably) or duplicate (minimally) using a one-step qRT-PCR master mix that contains all the components necessary for cDNA synthesis and PCR amplification in a single, continuous reaction. After cycling is complete, MxPro Software (Agilent Technologies, Santa Clara, Calif.) is used to analyze the collected data and determine the relative amount of FXN mRNA compared to a control sample. An adaptive baseline method is used for baseline correction whereby an algorithm automatically selects the appropriate baseline cycles for each well and each dye. An amplification-based threshold is set and the corresponding threshold cycle, or Ct, is obtained for calculating target concentration. The Ct values for each target gene (FXN and GAPDH) for each replicate series are averaged. The amount of FXN (or GAPDH) in the sample is determined as the relative quantity to the calibrator where the calibrator sample is assigned an arbitrary quantity of 1. The following equation is used: Relative quantity to the calibrator=2^−ΔCt where ΔCt=(Ct_gene)unknown−(Ct_gene)calibrator, gene is either FXN or GAPDH, calibrator is a DMSO control sample, and unknown is a HDACi treated sample. The relative quantity of FXN is normalized to cell number and RNA input. Data is reported in Tables 2 and 4 below, where the concentration required for a 2-fold increase in FXN mRNA is reported as A if less than 5 μM, B if between 5 and 10 μM, C if greater than 10 μM.

Human Hepatocytes = assay: Compound stability in hepatocytes; details: 5 μM
Experimental: To assess the stability and metabolism of RGFP compounds in hepatocytes. This assay was designed to evaluate the metabolism of RGFP compounds, following their incubation with human, monkey, dog and rat hepatocytes by monitoring either parent drug disappearance or metabolite appearance using HPLC.
Procedure: • Turn on the water-bath heater to 37° C. • Take out the KHB buffer and make sure it is at room temp before use • Prepare 2.5 mM concentration of RGFP compound in DMSO stock • Add 10 μL of above DMSO stock to 2490 μL KHB buffer; final concentration of RGFP compound will be 10 μM • Pre-warm 45 ml InVitro HT Medium to 37° C. in a sterile 50 ml conical tube • Add 1.0 mL Torpedo Antibiotic Mix per 45 mL InVitro HT medium • Transfer 13 mL of warm HT medium with Antibiotic Mix into a 15 mL conical tube. • Carefully remove the hepatocyte vials from liquid nitrogen (liquid phase). • Immediately immerse the vial into a 37° C. water bath. Shake gently until the ice melts entirely. […] Loosen the cell pellet by gently swirling the centrifuge tube • Transfer 100 μL of above solution to a different tube and add 900 μL of KHB buffer to count the cells • Determine the total cell count and the number of viable cells using the Trypan Blue exclusion method • Once you obtain the cell count, multiply the number by 10 (attributing to the dilution factor) • Now add required volume of KHB buffer to the tube containing hepatocytes such that the final count will be 2 million cells/mL • Dispense 50 μL of 2 million cells/ml to a 96 well plate and then add 50 μl of DMSO stock to respective wells (such that, the concentration of RGFP compounds is 5 μM and number of cells are 100000 in each well) • Place the plates on a shaker in a 37° C. incubator with 5% CO2 • Separate plates for each time point are advisable (Time points: 0 h, 1 h, 2 h, and 6 h) • After each time point, add 100 μL of quenching solution. • Quenching solution is an acetonitrile solution containing RGFP531 (10 μM) internal standard, 0.1% formic acid and phenylglyoxol (400 μM). The formic acid and phenylglyoxal is used for the identification and quantification of OPD as mentioned above. • Pipette up and down a few times to ensure a complete stop of reaction • Transfer all the solution into a 1.5 ml tube, vortex thoroughly, and centrifuge at 14000 RPM at 4° C. for 5 minutes to precipitate cell debris
Transfer the 150 μL of supernatant to vials for analysis using HPLC

[2] = Brain penetration studies; details: Table 4; mice; Cmax(brain)/Cmax(plasma)
Experimental: Test compounds were prepared at either 0.5 mg/ml or 5 mg/ml in 30% hydroxypropyl-β-cyclodextrin, 100 mM sodium acetate pH 5.5, 5% DMSO. C57/BL6/J mice were dosed s.c. at 5 mg/kg or 50 mg/kg, or i.v. at 5 mg/kg. Animals were euthanized at pre-dose, 5, 15, 30 min, 1, 2 and 4 hours post-dose and plasma and brain obtained. Three animals per dose per time points were used. The levels of compound in the plasma and brain were determined by standard LC/MS/MS methods. Brain/plasma ratio (BPR) was calculated as the ratio of the Cmax(brain)/Cmax(plasma).

[3] = Table 1, 2 hours pre-incubation

Compound: Cn1cc(/C=C/C(=O)Nc2cc(F)ccc2N)cn1 [C3]
- IC50 [1]: > 20000 nM
- IC50 (HDAC3/NcoR2): < 1000 nM
- IC50 (HDAC2): 1000 to 5000 nM
- IC50 (HDAC1): 1000 to 5000 nM

Compound: Nc1cc(F)ccc1NC(=O)/C=C/c1cnn(C/C=C/c2ccccc2)c1 [D2, (E)-N-(2-amino-4-fluorophenyl)-3-(1-cinnamyl-1H-pyrazol-4-yl)acrylamide]
- effect of dose on long-term memory for object recognition (C57BL/6J male mice): no effect of dose

Compound: Nc1ccccc1NC(=O)c1ccc(C=C2CN(CC3CC3)C2)cc1 [F12]
- F × n > 2X (uM) (Frataxin (FXN) mRNA): A (A if less than 5 μM)
- % left 6 h Hum (Human Hepatocytes): A (50%<A)
- BPR [2]: A (A is greater than 1)
- IC50 (HDAC3/NcoR2; Table 4): < 1000 nM
- IC50 (HDAC2; Table 4): < 1000 nM
- IC50 (HDAC1; Table 4): < 1000 nM

Compound: Nc1ccccc1NC(=O)c1ccc(C=C2CCN(CC3CC3)CC2)cc1 [F13]
- % left 6 h Hum (Human Hepatocytes): B (50%>B>30%)
- BPR [2]: A (A is greater than 1)
- IC50 (HDAC3/NcoR2; Table 4): < 1000 nM
- IC50 (HDAC2; Table 4): < 1000 nM
- IC50 (HDAC1; Table 4): < 1000 nM

Compound: CC(C)(C)CN1CCC(=Cc2ccc(C(=O)Nc3ccccc3N)cc2)CC1 [F14]
- F × n > 2X (uM) (Frataxin (FXN) mRNA): A (A if less than 5 μM)
- % left 6 h Hum (Human Hepatocytes): C (30%>C>10%)
- BPR [2]: A (A is greater than 1)
- IC50 (HDAC3/NcoR2; Table 4): < 1000 nM
- IC50 (HDAC2; Table 4): < 1000 nM
- IC50 (HDAC1; Table 4): < 1000 nM

Compound: CC(C)(O)CN1CCC(=Cc2ccc(C(=O)Nc3ccccc3N)cc2)CC1 [F15]
- F × n > 2X (uM) (Frataxin (FXN) mRNA): A (A if less than 5 μM)
- % left 6 h Hum (Human Hepatocytes): A (50%<A)
- BPR [2]: A (A is greater than 1)
- IC50 (HDAC3/NcoR2; Table 4): < 1000 nM
- IC50 (HDAC2; Table 4): < 1000 nM
- IC50 (HDAC1; Table 4): < 1000 nM

Compound: CN1CCC(Cn2cc(/C=C/C(=O)Nc3ccccc3N)cn2)CC1 [G1, (E)-N-(2-aminophenyl)-3-(1-((1-methylpiperidin-4-yl)methyl)-1H-pyrazol-4-yl)acrylamide]
- IC50 ([1]; Homo sapiens, GM15850): 1000 to 5000 nM
- IC50 (HDAC3/NcoR2; [3]): < 1000 nM
- IC50 (HDAC2; [3]): 1000 to 5000 nM
- IC50 (HDAC1; [3]): 1000 to 5000 nM

Compound: Cc1nn(C/C=C/c2ccccc2)c(C)c1/C=C/C(=O)Nc1ccccc1N [G2, (E)-N-(2-aminophenyl)-3-(1-cinnamyl-3,5-dimethyl-1H-pyrazol-4-yl)acrylamide]
- IC50 ([1]; Homo sapiens, GM15850): 10000 to 20000 nM
- IC50 (HDAC3/NcoR2; [3]): < 1000 nM
- IC50 (HDAC2; [3]): 1000 to 5000 nM
- IC50 (HDAC1; [3]): 1000 to 5000 nM

Compound: Cc1ccc(C(=O)NCCCCCC(=O)Nc2ccc(F)cc2N)cc1 [RGFP 136, reference compound]
- effect of dose on long-term memory for object recognition (C57BL/6J male mice): Dose dependent effects
